The values below come from US20260209218A1, “3-PHENYLQUINAZOLINONES AS NOVEL ANTI-CANCER THERAPY” (HELMHOLTZ ZENTRUM MÜNCHEN - DEUTSCHES FORSCHUNGSZENTRUM FÜR …, priority 2022, published 2026).

Data set [1] has as its target T1, hFSP1 (Homo sapiens, UniProt Q9BRQ8).
T1 construct: expressed in transfected cells; host or cells: Gpx4 KO isogenic fibroblasts (Pfa1, mouse) overexpressing hFSP1
T1 sequence (Q9BRQ8 1-373): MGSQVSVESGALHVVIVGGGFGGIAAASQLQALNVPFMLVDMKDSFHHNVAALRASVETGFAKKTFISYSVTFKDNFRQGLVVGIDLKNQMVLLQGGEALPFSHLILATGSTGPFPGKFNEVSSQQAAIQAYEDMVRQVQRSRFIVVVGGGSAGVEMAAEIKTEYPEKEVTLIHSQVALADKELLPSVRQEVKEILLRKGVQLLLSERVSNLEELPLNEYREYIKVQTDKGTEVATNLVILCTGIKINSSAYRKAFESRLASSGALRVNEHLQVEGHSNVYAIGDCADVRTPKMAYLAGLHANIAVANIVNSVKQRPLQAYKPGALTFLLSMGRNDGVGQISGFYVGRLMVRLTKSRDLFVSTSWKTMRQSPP
Put plainly: Dose-response of screening hits, cell survival by Aquabluer in hFSP1 GPX4 KO cells. The class given is cell-based. Conditions: FSP1 overexpressing cells lacking GPX4. As for the experimental part:
To identify new small molecule inhibitors that induce ferroptosis in FSP1 overexpressing cells lacking GPX4, hFSP1 GPX4 KO as well as FSP1 GPX4 wild type (WT) isogenic fibroblasts were screened using a subtractive high throughput screening (HTS) approach. As such, both cell lines were plated in parallel and screened against HMGU libraries at a fixed concentration of 10 μM. Cell survival was evaluated using the LIVE/DEAD assay Aquabluer. The percentage (%) of viable cells was determined for both wild type (WT) and knockout (KO) cell lines. Hits were considered as compounds that induce ferroptosis in KO but not in WT cells. Subsequently, positive hits were assayed in a dose-response manner to establish EC50 values of respective compounds (see Table 2).

The test system of data set [2] is Pfa1 Gpx4^KO cells overexpressing FSP1. Put plainly: Cell viability assay (AquaBluer), ferroptosis induction. The class given is cell-based. Conditions: FIG. 1A; rescued by liproxstatin-1. As for the experimental part: (§1) Cells were seeded on 96-well plates and cultured overnight. On the next day, the medium was changed to medium containing following compounds: RSL3, ML210, erastin, FIN56, FINO2, BSO, iFSP1, icFSP1, Lip-1, DFO, Fer-1, zVAD, Nec-1s, MCC950, olaparib, STS, TNFa, Smac mimic or nigericin at the indicated concentrations. For TAM and Dox treatment, cells were seeded with compounds at the same time. Cell viability was determined 1 h (for nigericin), 24-48 h (for RSL3, ML210, erastin, FIN56, FINO2, iFSP1, icFSP1, STS, TNFa, Smac mimic, and zVAD) or 72 h (for BSO, icFSP1, TAM, and Dox) after the treatment using AquaBluer (MultiTarget Pharmaceuticals, Cat #6015) as an indicator of viable cells according to the manufacturer's protocols. For apoptosis induction, HT-1080 cells were incubated with different concentrations of STS for 24 h. For necroptosis induction, HT-29 cells were incubated with different concentrations of TNFa with Smac mimic (400 nM), and zVAD (30 μM) for 24 h. […] As readout fluorescence was measured at Ex/Em=540/590 nm using a SpectraMax M5 microplate reader with SoftMax Pro v7 (Molecular devices) after 4 hours of incubation in normal cell culture conditions. The relative cell viability (%) was calculated as follows: (fluorescence (FL) of samples−background)/(FL of appropriate control samples−background)×100.

Data set [3] has as its system HT-1080 wild type cells. The description is as above. It is filed as cell-based, human. Conditions: FIG. 1B; rescued by liproxstatin-1. As for the experimental part:
as §1

Data set [4] relates to H460 GPX4 KO cells (a human lung cancer cell line). Put plainly: Xenograft subcutaneous tumor model, H460. The class given is in vivo, Athymic Nude mice. Conditions: FIG. 11C; 50 mg/kg i.p. twice per day from day 8. As for the experimental part:
For the xenograft subcutaneous tumor experiments, GPX4^KO H460 cells (5×10^6 cells in 100 μL PBS) were injected subcutaneously into the right flanks of 6-week-old female athymic nude mice. After tumors reached a size of approximately 100 mm^3, mice were randomized and treated with vehicle or icFSP1 (50 mg/kg, Intonation) by i.p. injections twice per day.
(§2) icFSP1 was dissolved in 45% PEG E 300 (Sigma, Cat #91462-1 KG) and 55% PBS (Gibco, Cat #14190094). Tumors were measured by caliper every day and tumor volume was calculated by the following formula: Tumor volume=length×width^2×0.52. When tumor sizes were either larger than 1000 mm^3 at measurement or tumors became necrotic, these tumors were considered to be human endpoints. When tumors became human endpoints, the experiment was stopped at that point and no further experiments were conducted.

The test system of data set [5] is Gpx4 KO/Fsp1KO double mutant murine melanoma cells (B16F10) reconstituted with human FSP1. Put plainly: Syngeneic subcutaneous tumor model. The class given is in vivo, C57BL6/J mice. As for the experimental part: All mice were obtained from Charles River. For the syngeneic subcutaneous tumor experiments, Gpx4^KO/Fsp1^KO 1B16F10 cells stably overexpressing hFSP1-HA (1×10^6 cells in 100 μL PBS) were injected subcutaneously into the right flank of 7-week-old female C57BL6/J mice. After tumors reached a size of approximately 25-50 mm^3, mice were randomized and treated with vehicle or icFSP1 (50 mg/kg, Intonation) by i.p. injections twice per day for 4-5 days. For generating tumor samples for staining, Gpx4^KO/Fsp1^KO 1B16F10 cells stably expressing hFSP1-WT-HA or hFSP1-Q319K-HA (1×10^6 cells in 100 μL PBS) were injected subcutaneously into the right flank of 7-week-old female C57BL6/J mice. After tumors reached a size of approximately 50-150 mm^3, mice were treated with vehicle or icFSP1 (50 mg/kg, Intonation) by i.p. injections twice per day for 3 days.
as §2

The test system of data set [6] is WT hFSP1 or its mutants S187C, L217R and Q319K. Put plainly: Saturation transfer difference (STD) NMR. The conditions noted are these: FIG. 9; 5 μM recombinant human FSP1, 100-fold molar excess of compound, 10° C. It is filed as binding. As for the experimental part:
Saturation transfer difference (STD) experiments were performed at Bruker Avance III HD spectrometer at 600 MHz ^1H frequency using a H/N/C triple resonance cryogenic probe. Spectra were recorded at 10° C. with 5 μM recombinant human FSP1 (mutant) and 100-fold molar excess of icFSP1 in phosphate-buffer saline with additional 150 mM NaCl, 1% (v/v) DMSO-d6 and 10% (v/v) D2O for deuterium-lock. Saturation time was 2.5 sec and on- and off-frequencies were 0.68 and −17 ppm, respectively. NMR spectra were processed using Topspin 4.0.6 (Bruker).

Data set [7] concerns GPX4 KO human melanoma cells (A375). Put plainly: Xenograft subcutaneous tumor model, A375. Conditions: FIG. 3B; treatment from day 3 post implantation, 50 mg/kg i.p. The class given is in vivo, nude mice. As for the experimental part:
For the xenograft subcutaneous tumor experiments, GPX4^KO A375 cells (5×10^6 cells in 100 μL PBS) were injected subcutaneously into the right flank of 7-week-old female athymic nude mice. After tumors reached a size of approximately 25-100 mm^3, mice were randomized and treated with vehicle or icFSP1 (50 mg/kg, Intonation) by i.p. injections twice per day for the first 4 days and afterward once daily.
as §2

Data set [8] can be described thus: Pharmacokinetics after a single intraperitoneal dose, plasma by LC-MS/MS. The class given is in vivo, male Balb/cAnN mice. The conditions noted are these: mouse, IP, 10 mg/kg. As for the experimental part: The purpose of this study was to determine the pharmacokinetic characteristics of compound 13 in male Balb/cAnN mice following intraperitoneal (IP) administration. Levels of the test compound were determined by LC-MS/MS in the blood plasma samples over time after a single dose.
Study design, animal selection, handling and treatment were all in accordance with the Enamine PK study protocols and Institutional Animal Care and Use Guidelines (BACUC approval number #HC-PK-10112023). Animal treatment and samples preparation were conducted by the Animal Laboratory personnel at Enamine/Bienta. Male Balb/cAnN mice (10 weeks old, body weight ranged from 19.6 g to 23.3 g and average body weight across all groups 21.0 g, SD=0.9 g) were used in this study. The animals were randomly assigned to the treatment groups before the pharmacokinetic study; all animals were fasted for 4 h before dosing. Six sampling time points (5, 15, 30, 60, 120, and 360 min) were set for this pharmacokinetic study. Each of the time point treatment group included 4 animals. There was also a control group of one vehicle-dosed animal. Dosing was done according to the treatment Schedules outlined in Table 5. Mice were injected IP with 2,2,2-tribromoethanol at the dose of 150 mg/kg prior to drawing the blood. Blood collection was performed from the orbital sinus in microtainers containing K3EDTA. Animals were sacrificed by cervical dislocation after the blood samples collection. Blood samples were centrifuged for 10 min at 3000 rpm. All samples were immediately processed, flash-frozen and stored at −70° C. until subsequent analysis.
Plasma samples (40 μl) were mixed with 200 μl of IS(90) solution. After mixing by pipetting and centrifuging for 4 min at 6000 rpm, 0.25 μl of each supernatant was injected into LC-MS/MS system.
Analyses of plasma samples were conducted by the Bioanalytical Laboratory personnel at Enamine/Bienta. The concentrations of 13 in samples were determined using high performance liquid chromatography/tandem mass spectrometry (HPLC-MS/MS). Shimadzu HPLC system comprised 2 isocratic pumps LC-10ADvp, an autosampler SIL-20AC, a sub-controller FCV-14AH and a degasser DGU-14A. Mass spectrometric analysis was performed using an API 3000 (triple-quadrupole) instrument from AB Sciex (Canada) with an electro-spray (ESI) interface. The data acquisition and system control were performed using Analyst 1.6.3 software from AB Sciex.
The concentrations of the test compound below the lower limit of quantitation (LLOQ=100 ng/ml) were designated as zero. The pharmacokinetic data analysis was performed using noncompartmental, bolus injection or extravascular input analysis models in WinNonlin 5.2 (PharSight). Data below LLOQ were presented as missing to improve the validity of T½ calculations.

Data set [9] in a line: Microsomal stability, mouse liver microsomes. The class given is in vitro ADME. The conditions noted are these: Balb/c, pH 7.4, 0.42 mg microsomal protein per ml, 37° C., five time points over 40 minutes. As for the experimental part: (§3) The objective of this study was to determine metabolic stability of 4 test articles and reference compounds in human and mouse liver microsomes at five time points over 40 minutes using HPLC-MS. Metabolic stability is defined as the percentage of parent compound lost over time in the presence of a metabolically active test system.
(§4) Microsomal incubations were carried out in 96-well plates in 5 aliquots of 30 μL each (one for each time point). Liver microsomal incubation medium comprised of phosphate buffer (100 mM, pH 7.4), MgCl2 (3.3 mM), NADPH (3 mM), glucose-6-phosphate (5.3 mM), glucose-6-phosphate dehydrogenase (0.67 units/ml) with 0.42 mg of liver microsomal protein per ml. In the control reactions, the NADPH-cofactor system was substituted with phosphate buffer. Test compounds (2 μM, final solvent concentration 1.6%) were incubated with microsomes at 37° C., shaking at 100 rpm. Five time points over 40 minutes were analyzed. The reactions were stopped by adding 5 volumes of acetonitrile with internal standard to incubation aliquots, followed by protein sedimentation by centrifuging at 5500 rpm for 5 minutes. Each reaction was performed in duplicates. Supernatants were analyzed using the HPLC system coupled with a tandem mass spectrometer.
(§5) The elimination constant (kel), half-life (t1,2), and intrinsic clearance (Clint) were determined in a plot of In(AUC) versus time, using linear regression analysis:^1

A short description of data set [10]: Microsomal stability, human liver microsomes. It is filed as in vitro ADME. Conditions: pH 7.4, 0.42 mg microsomal protein per ml, 37° C., five time points over 40 minutes. As for the experimental part:
as §3, §4, §5

A value given as a limit tells only on which side of the number the result lay.

The EC50 is the concentration giving half of the maximal effect. Turning to `COc1cc(CC(=O)Nc2ccc(-n3c(C)nc4ccccc4c3=O)cc2)cc(OC)c1OC` [Compound 1], in [1], the EC50 was less than 1000 nM. Moreover, the “ferroptosis induction (cell death, AquaBluer)” value in data set [2] and in data set [3] was “efficiently induces ferroptosis” in each case.
For `COc1cc(CC(=O)Nc2ccc(-n3c(C)nc4ccccc4c3=O)cc2)cc(OC)c1OC` [icFSP1], the tumor growth result in data set [4] was “inhibits tumor growth in vivo”; in data set [7] it was “inhibited tumor growth in both human and mouse tumors significantly”. Further, in data set [5] (FIG. 3A, treatment from day 6 post implantation, 50 mg/kg i.p. twice per day), the “tumor growth (tumor volume, tumor weight)” value was “inhibited tumor growth in both human and mouse tumors significantly”. For the same compound, in [5] (FIG. 10E, 50 mg/kg i.p. twice per day from day 6), the “tumor growth, hFSP1 WT versus FSP1-Q319K expressing cells” value is on record as “inhibits tumor growth of hFSP1 WT but not of FSP1-Q319K expressing cells”. The “binding by STD spectra” value in data set [6] is given as “show binding of icFSP1”.
One may read the Cmax as the maximum level reached in the sampled fluid or tissue. A word on the Tmax: it is the time from dosing to the highest level. Broadly, the microsomal CLint is a measure of how fast metabolising enzymes remove a compound, apart from limits set by blood flow. As to `Cc1nc2ccccc2c(=O)n1-c1ccc(NC(=O)Cc2ccccc2)cc1` [Compound 13, N-(4-(2-methyl-4-oxoquinazolin-3(4H)-yl)phenyl)-2-phenylacetamide], the EC50 in data set [1] is more than 1000 nM. Further, in data set [8] (based on the total drug concentration), the “plasma concentration relative to the EC50 value” is 10 fold. Further, in data set [8] (male, Balb/cAnN, plasma), the peak level (Cmax) was 10200 ng/mL and the Tmax is 0.25 h. Also, in data set [8] (male, Balb/cAnN, plasma, read-out: AUC0→t = 60 min (AUClast) (converted)), the AUC(0-t) was 30000 ng·h/mL. In addition, the AUC(0-inf) in data set [8] (male, Balb/cAnN, plasma, read-out: AUC0→∞ (AUCINF_obs) (converted)) is 33500 ng·h/mL. Further, in data set [8] (male, Balb/cAnN, plasma, read-out: MRT (MRTinf) (converted)), the MRT inf is 2.52 h. Also, in data set [8] (male, Balb/cAnN, plasma, read-out: MRT (MRTlast) (converted)), the MRT last is 1.78 h. In [8] (male, Balb/cAnN, plasma, read-out: T1/2 (HL_Lambda_z)), the half-life is 1.9 h. Further, in [8] (plasma), the “Kel (Lambda_z)” value worked out at 0.00608 min⁻¹. The compound further registered an intrinsic clearance (microsomal CLint) at 2 μM in [9] of 6 µL/min/mg. Besides, the microsomal CLint at 2 μM in data set [10] worked out at 12 µL/min/mg.
